Target: T1, Kv7.2 (Homo sapiens, UniProt O43526)
T1 construct: expressed in transfected cells
Test: Activation of Kv7.2 (in vitro assay, concentration response curve)
Assay type: cell-based
Settings: for Emax: Kv7.2 activation max %; for EC50: activation of Kv7.2
Method in brief: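 EC50 is the half-maximal effective concentration, relative to the Emax observed for each compound in this in vitro assay. It was derived from concentration–response curves of the agonistic effect measured over a series of concentrations.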

Row | SMILES | Emax [%] | EC50 [nM]
1 | O=C(Nc1cccc(Cl)c1)N[C@@H](CO)c1ccnc(OCC(F)(F)F)c1 [Example 145, 1-(3-chlorophenyl)-3-[(1R)-2-hydroxy-1-[2-(2,2,2-trifluoroethoxy)pyridin-4-yl]ethyl]urea] | 58 | 80
2 | O=C(NCc1ccnc(OC(F)F)c1)N[C@@H]1CC[C@H](C(F)(F)F)C1 [Example 146, 1-[[2-(difluoromethoxy)pyridin-4-yl]methyl]-3-[(1R,3S)-3-(trifluoromethyl)cyclopentyl]urea] | 68 | 160
3 | O=C(NCc1ccnc(OC(F)F)c1)NC1CCCCC1(O)C(F)(F)F (centres unmarked) [Example 147, 1-[[2-(difluoromethoxy)pyridin-4-yl]methyl]-3-[2-hydroxy-2-(trifluoromethyl)cyclohexyl]urea] | 56 | 540
4 | O=C(NCc1ccnc(OC(F)F)c1)N[C@@H]1CCCC(F)(F)C1 [Example 149, 1-[(1R)-3,3-difluorocyclohexyl]-3-[[2-(difluoromethoxy)pyridin-4-yl]methyl]urea] | 43 | 240
5 | O=C(Nc1cccc(Cl)c1F)NC(CO)c1ccnc(OCC(F)(F)F)c1 (centres unmarked) [Example 150, 1-(3-chloro-2-fluorophenyl)-3-[2-hydroxy-1-[2-(2,2,2-trifluoroethoxy)pyridin-4-yl]ethyl]urea] | 73 | 80
6 | C[C@@H](F)COc1cc(CNC(=O)NC23CCC(F)(CC2)CC3)ccn1 [Example 151, 1-(4-fluoro-1-bicyclo[2.2.2]octanyl)-3-[[2-[(2R)-2-fluoropropoxy]pyridin-4-yl]methyl]urea] | 42 | 650
7 | O=C(NCc1ccnc(OC(F)F)c1)NC(C1CCC1)C(F)(F)F (centres unmarked) [Example 152, 1-(1-cyclobutyl-2,2,2-trifluoroethyl)-3-[[2-(difluoromethoxy)pyridin-4-yl]methyl]urea] | 64 | 140
8 | O=C(NCc1ccnc(C(F)(F)F)c1)NC12CC(F)(C1)C2 [Example 153, 1-(3-fluoro-1-bicyclo[1.1.1]pentanyl)-3-[[2-(trifluoromethyl)pyridin-4-yl]methyl]urea] | 41 | 7270
9 | C[C@H](F)COc1cc(CNC(=O)NC23CCC(F)(CC2)CC3)ccn1 [Example 156, 1-(4-fluoro-1-bicyclo[2.2.2]octanyl)-3-[[2-[(2S)-2-fluoropropoxy]pyridin-4-yl]methyl]urea] | 50 | 560
10 | O=C(NCc1ccnc(OCC(F)(F)F)c1)NC1CC(F)(F)C1 [Example 157, 1-(3,3-difluorocyclobutyl)-3-[[2-(2,2,2-trifluoroethoxy)pyridin-4-yl]methyl]urea] | 50 | 380
11 | O=C(NCc1ccnc(CC(F)(F)F)c1)NC12CC(F)(C1)C2 [Example 159, 1-(3-fluoro-1-bicyclo[1.1.1]pentanyl)-3-[[2-(2,2,2-trifluoroethyl)pyridin-4-yl]methyl]urea] | 67 | 5180
12 | CC(F)COc1cc(CNC(=O)NC23CC(F)(C2)C3)ccn1 (centres unmarked) [Example 160, 1-(3-fluoro-1-bicyclo[1.1.1]pentanyl)-3-[[2-(2-fluoropropoxy)pyridin-4-yl]methyl]urea] | 61 | 6310
13 | O=C(NCc1ccnc(OC(F)F)c1)Nc1cncc(Cl)c1 [Example 161, 1-(5-chloropyridin-3-yl)-3-[[2-(difluoromethoxy)pyridin-4-yl]methyl]urea] | 43 | 1050
14 | O=C(NCc1ccnc(OCC(F)(F)F)c1)N[C@H]1C[C@H](F)C1 [Example 162, 1-((1r,3r)-3-fluorocyclobutyl)-3-[[2-(2,2,2-trifluoroethoxy)pyridin-4-yl]methyl]urea] | 50 | 190
15 | C[C@H]1C[C@H](NC(=O)NCc2ccnc(OC(F)F)c2)C1 [Example 163, 1-[[2-(difluoromethoxy)pyridin-4-yl]methyl]-3-((1r,3r)-3-methylcyclobutyl)urea] | 83 | 240
16 | O=C(NCc1ccnc(OCF)c1)Nc1cccc(Cl)c1 [Example 164, 1-(3-chlorophenyl)-3-[[2-(fluoromethoxy)pyridin-4-yl]methyl]urea] | 78 | 1720
17 | O=C(NCc1ccnc(OC(F)F)c1)NC1COC(C2CC2)C1 (centres unmarked) [Example 166, 1-(5-cyclopropyloxolan-3-yl)-3-[[2-(difluoromethoxy)pyridin-4-yl]methyl]urea] | 66 | 3330
18 | O=C(NCc1ccnc(OCC(F)(F)F)c1)NC12CC(F)(C1)C2 [Example 168, 1-(3-fluoro-1-bicyclo[1.1.1]pentanyl)-3-[[2-(2,2,2-trifluoroethoxy)pyridin-4-yl]methyl]urea] | 59 | 210
19 | O=C(NCc1ccnc(OC(F)F)c1)N[C@@H]1C[C@@H]2[C@H](C1)C2(F)F [Example 169, 1-[[2-(difluoromethoxy)pyridin-4-yl]methyl]-3-[(1R,3s,5S)-6,6-difluoro-3-bicyclo[3.1.0]hexanyl]urea] | 69 | 340

Row | SMILES | Emax [%] | EC50 [nM]
20 | O=C(NCc1ccnc(OC(F)F)c1)N[C@@H]1[C@H]2CCC(F)(F)[C@H]21 [Example 170, 1-[(1R,5S,6R)-2,2-difluoro-6-bicyclo[3.1.0]hexanyl]-3-[[2-(difluoromethoxy)pyridin-4-yl]methyl]urea] | 59 | 80
21 | O=C(NCc1ccnc(OC(F)F)c1)NC1(C2CC(F)(F)C2)CC1 [Example 171, 1-[1-(3,3-difluorocyclobutyl)cyclopropyl]-3-[[2-(difluoromethoxy)pyridin-4-yl]methyl]urea] | 48 | 360
22 | O=C(NCc1ccnc(OC(F)F)c1)NC1CC1(F)F (centres unmarked) [Example 173, 1-(2,2-difluorocyclopropyl)-3-[[2-(difluoromethoxy)pyridin-4-yl]methyl]urea] | 57 | 4400
23 | O=C(NCc1ccnc(OC(F)F)c1)N[C@H]1[C@@H]2CCC(F)(F)[C@@H]21 [Example 174, 1-[(1S,5R,6S)-2,2-difluoro-6-bicyclo[3.1.0]hexanyl]-3-[[2-(difluoromethoxy)pyridin-4-yl]methyl]urea] | 51 | 200
24 | O=C(NCc1ccnc(OC(F)F)c1)NC1(C(F)(F)F)CC1 [Example 175, 1-[[2-(difluoromethoxy)pyridin-4-yl]methyl]-3-[I-(trifluoromethyl)cyclopropyl]urea] | 50 | 8300
25 | O=C(NCc1ccnc(OC(F)F)c1)NC1(C23CC(F)(C2)C3)CC1 [Example 177, 1-[[2-(difluoromethoxy)pyridin-4-yl]methyl]-3-[1-(3-fluoro-1-bicyclo[1.1.1]pentanyl)cyclopropyl]urea] | 43 | 1400
26 | O=C(NCc1ccnc(OC(F)F)c1)NC12CC(C(F)(F)F)(C1)C2 [Example 178, 1-[[2-(difluoromethoxy)pyridin-4-yl]methyl]-3-[3-(trifluoromethyl)-1-bicyclo[1.1.1]pentanyl]urea] | 62 | 1860
27 | O=C(NCc1ccnc(OCC(F)(F)F)c1)N[C@H]1C[C@H](C(F)(F)F)C1 [Example 179, 1-[[2-(2,2,2-trifluoroethoxy)pyridin-4-yl]methyl]-3-[(1r,3r)-3-(trifluoromethyl)cyclobutyl]urea] | 48 | 20
28 | O=C(NCc1ccnc(OCC(F)(F)F)c1)NC12CCC(F)(CC1)CC2 [Example 180, 1-(4-fluoro-1-bicyclo[2.2.2]octanyl)-3-[[2-(2,2,2-trifluoroethoxy)pyridin-4-yl]methyl]urea] | 72 | 310
29 | O=C(NCc1ccnc(OC(F)F)c1)NCC1CC(F)(F)C1 [Example 181, 1-[(3,3-difluorocyclobutyl)methyl]-3-[[2-(difluoromethoxy)pyridin-4-yl]methyl]urea] | 41 | 660
30 | CC12CC(NC(=O)NCc3ccnc(OC(F)F)c3)(C1)C2 [Example 182, 1-[[2-(difluoromethoxy)pyridin-4-yl]methyl]-3-(3-methyl-1-bicyclo[1.1.1]pentanyl)urea] | 63 | 90
31 | CC(F)COc1cc(CNC(=O)N[C@H]2C[C@H](C(F)(F)F)C2)ccn1 (some centres unmarked) [Example 183, 1-[[2-(2-fluoropropoxy)pyridin-4-yl]methyl]-3-[(1r,3r)-3-(trifluoromethyl)cyclobutyl]urea] | 58 | 260
32 | C[C@]1(O)CCC[C@@H]1NC(=O)NCc1ccnc(OC(F)F)c1 [Example 184, 1-[[2-(difluoromethoxy)pyridin-4-yl]methyl]-3-[(1S,2S)-2-hydroxy-2-methylcyclopentyl]urea] | 55 | 1810
33 | O=C(NC(CO)c1ccnc(OCC(F)(F)F)c1)N[C@H]1C[C@H](C(F)(F)F)C1 (some centres unmarked) [Example 185, 1-[2-hydroxy-1-[2-(2,2,2-trifluoroethoxy)pyridin-4-yl]ethyl]-3-[(1r,3r)-3-(trifluoromethyl)cyclobutyl]urea] | 84 | 380
34 | O=C(NCc1ccnc(OC(F)F)c1)Nc1ccc(F)c(F)c1 [Example 186, 1-[[2-(difluoromethoxy)pyridin-4-yl]methyl]-3-(3,4-difluorophenyl)urea] | 62 | 550
35 | CC1(C)CC(NC(=O)NCc2ccnc(OC(F)F)c2)C1 [Example 188, 1-[[2-(difluoromethoxy)pyridin-4-yl]methyl]-3-(3,3-dimethylcyclobutyl)urea] | 82 | 50
36 | O=C(NCc1ccnc(OC(F)F)c1)N[C@H]1C[C@@H]2[C@H](C1)C2(F)F [Example 189, 1-[[2-(difluoromethoxy)pyridin-4-yl]methyl]-3-[(1R,3r,5S)-6,6-difluoro-3-bicyclo[3.1.0]hexanyl]urea] | 74 | 130
37 | O=C(NCc1ccnc(OC(F)F)c1)N[C@@H]1C[C@H]2CCC[C@H]2C1 [Example 190, 1-[[2-(difluoromethoxy)pyridin-4-yl]methyl]-3-[(2s,3aR,6aS)-1,2,3,3a,4,5,6,6a-octahydropentalen-2-yl]urea] | 85 | 30

Reference: US20250074901A1, “NOVEL HETEROARYL COMPOUNDS” (ICAGEN, LLC, priority 2021, published 2025)
